# Measurements reported in patent US5420128A, “Pyrimidine derivatives, method of manufacturing the same, and androgen inhibitor” (Otsuka Pharmaceutical Co., Ltd., priority 1990, dated 1995).
# Experiments:
# [1] = molecular target: T1, rat prostate androgen receptor (Rattus norvegicus, UniProt P15207); assay: inhibitory activity on binding of ^3 H-5α-DHT on rat prostate androgen receptor; conditions: ^3 H-5α-DHT 1 nM, rat ventral prostate cytosol, about 20 hours at 0° C.; read-out: Inhibitory activity on 5α-DHT specific binding [IC50 (M)]
# T1 construct: the supernatant was obtained as cytoplasm fraction; from tissue; host or cells: cytosol (105000×g supernatant) of rat ventral prostate, 24 hours after castration
# T1 sequence (P15207 1-902): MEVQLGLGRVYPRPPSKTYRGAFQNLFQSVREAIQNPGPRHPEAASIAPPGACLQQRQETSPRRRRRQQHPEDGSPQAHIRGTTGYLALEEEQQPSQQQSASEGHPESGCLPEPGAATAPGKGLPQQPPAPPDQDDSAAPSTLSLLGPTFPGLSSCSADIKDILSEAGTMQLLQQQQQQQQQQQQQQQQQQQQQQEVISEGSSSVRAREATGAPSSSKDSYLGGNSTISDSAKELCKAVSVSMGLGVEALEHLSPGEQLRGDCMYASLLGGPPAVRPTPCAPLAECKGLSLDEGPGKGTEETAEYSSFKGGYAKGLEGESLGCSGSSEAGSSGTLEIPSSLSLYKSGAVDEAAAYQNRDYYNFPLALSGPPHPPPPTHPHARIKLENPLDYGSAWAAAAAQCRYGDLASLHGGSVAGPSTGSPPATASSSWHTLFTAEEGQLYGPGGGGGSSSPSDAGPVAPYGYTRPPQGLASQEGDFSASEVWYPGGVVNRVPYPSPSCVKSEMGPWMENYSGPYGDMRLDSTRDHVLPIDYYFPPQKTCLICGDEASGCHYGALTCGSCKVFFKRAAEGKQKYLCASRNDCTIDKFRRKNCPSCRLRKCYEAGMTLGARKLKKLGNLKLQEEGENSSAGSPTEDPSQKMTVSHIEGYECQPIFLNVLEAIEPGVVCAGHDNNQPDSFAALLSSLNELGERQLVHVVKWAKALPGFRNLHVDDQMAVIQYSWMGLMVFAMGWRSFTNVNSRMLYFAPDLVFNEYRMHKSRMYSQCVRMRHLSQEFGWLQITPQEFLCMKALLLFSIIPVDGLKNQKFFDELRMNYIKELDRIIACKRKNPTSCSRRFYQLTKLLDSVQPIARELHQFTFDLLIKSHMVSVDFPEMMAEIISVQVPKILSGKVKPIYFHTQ
# Method: The compounds obtained in Examples were evaluated in the following pharmacological studies A and B. The pharmacological study A was conducted in conformity with J.B.C. 256 (15) 7998-8005, 1981.
# A. Measurement of inhibitory activity on binding of ^3 H-5α-[…] (^3 H-5α,-DHT) on rat prostate androgen receptor
# (1) Preparation of cytosol from rat prostate
# The rat was sacrificed 24 hours after castration, and the ventral lobe of prostate was removed, and was gently homogenized, on ice water bath, by using a Potter homogenizer in three-fold amount of 0.25M sucrose-TME buffer solution (50 mM tris-HCl (pH 7.4), 0.5 mM mercaptoethanol, and 0.1 mM EDTA-2 Na). The homogenate was filtrated through double gauze, and ultracentrifuged at 105000×g for 60 minutes, and the supernatant was used as androgen receptor.
# (2) Measurement of ^3 H-5α-DHT specific binding on prostate cytoplasmic androgen receptor
# To the cytosol obtained in (1), ^3 H-5α-DHT (47.8 Ci/mmol) was added, so that a final concentration is adjusted to 1 nM, and 0.25 M sucrose-TME buffer was added to adjust the final volume to 0.5 ml, and the reaction mixture was incubated for about 20 hours at 0° C. An ammonium sulfate solution dissolved in 0.25 M sucrose-TME buffer was mixed to be 35% saturation, and after standing for 90 minutes at 0° C., the mixture was centrifuged at 10000×g for 10 minutes at 4° C., and the precipitate was obtained.
# This precipitate was suspended again in 0.8 ml of the above buffer solution, and furthermore in order to remove the free type ^3 H-5α-DHT, 0.2 ml of dextran-carbon powder suspension (4% activated carbon, 0.1% dextran T-70, and 0.1% gelatin dissolved in the above buffer solution) was added and mixed, and the mixture was let stand for 10 minutes at 0° C. At 4° C., in succession, the mixture was centrifuged at 3000×g for 10 minutes, and 0.5 ml of the supernatant was transferred into a vial, and 10 ml of aquasol-2 was added, and radioactivity was measured, and the total binding amount of ^3 H-5α-DHT on the prostate cytoplasma androgen receptor was determined. The nonspecific binding amount was similarly determined by adding a non-radioactive ligand (5α-DHT) to the reaction solution to a final concentration of 1 μM. The difference between the total binding amount and nonspecific binding amount was determined as the specific binding amount on the androgen receptor.
# (3) Inhibitory activity of sample compounds on ^3 H-5α-DHT specific binding
# The compounds obtained in Examples were incubated with ^3 H-5α-DHT at several concentrations same as in (2), and the specific binding amount of ^3 H-5α-DHT on the androgen receptor was determined. Comparing the obtained value with the value of (2), the IC50 value of the test compounds on ^3 H-5α-DHT specific binding was determined. The following compounds were used as the positive controls.
# [2] = molecular target: T1, rat prostate androgen receptor; assay: inhibitory activity on binding of ^3 H-mibolerone on rat prostate androgen receptor; conditions: ^3 H-mibolerone 1 nM, triamcinolone acetonide 5 μM, rat ventral prostate cytosol, 20 hours at 0° C.; read-out: Inhibitory activity on mibolerone specific binding [IC50 (M)]
# Method: B. Measurement of inhibitory activity on binding of ^3 H-mibolerone on rat prostate androgen receptor
# The rat was sacrificed 24 hours after castration, and the ventral lobe of prostate was removed, and was gently homogenized, in ice-cooling water bath, at first by using Polytron and then using Potter type homogenizer, in three-fold amount of buffer solution A (1.5 mM EDTA, 2 mM dithiothreitol, 10 mM molybdate sodium, 10 % by volume of glycerol, 10 mM NaF, 25 mM phosphate sodium, pH 7.2). The obtained homogenate was filtrated through double gauze, and centrifuged at 105000×g for 60 minutes at 4° C., and the supernatant was obtained as cytoplasm fraction.
# (2) Measurement of specific binding of ^3 H-mibolerone on prostate cytoplasm androgen receptor
# To the cytoplasm fraction obtained in (1), ^3 H-mibolerone (87.0 Ci/mmol) was added, so that a final concentration is adjusted to 1 nM, and at the same time, in order to inhibit binding of ^3 H-mibolerone to progestin receptor, triamsinolone acetonide was added to a final concentration of 5 μM, and the final volume was adjusted to 0.4 ml with buffer solution A, and the reaction mixture was incubated for 20 hours at 0° C. After incubation, 0.5 ml of 60% hydroxylapatite slurry (washed and equilibrate with a buffer solution B: 10 mM NaH2 P04, 20 mM tris-hydrochloric acid, pH 7.2) was added, and incubated for 10 minutes at 0° C., the solution was transferred onto a glass fiber filter, and washed five times with 5 ml portions of buffer solution B containing 0.1% (weight/volume) of Triton X-100, to remove free ^3 H-mibolerone. This glass fiber was transferred into vial, and 10 ml of aquasol-2 was added, and the radioactivity was measured, and the total binding amount of ^3 H-mibolerone on prostate cytoplasm androgen receptor was determined.
# The nonspecific binding amount was determined similarly by adding an unlabeled 5α-DHT in the reaction solution to a final concentration of 1 μM. The difference between the total binding amount and nonspecific binding amount was determined as the specific binding amount on the androgen receptor.
# (3) Inhibitory activity of sample compounds on ^3 H-mibolerone specific binding
# The compounds obtained in the experiments were added simultaneously with ^3 H-mibolerone at different concentrations to incubate same as in (2), and the specific binding amount of 3H-mibolerone on androgen receptor was determined. Comparing this value with the value obtained in (2), the IC50 value of inhibitory activity of the compounds on ^3 H-mibolerone specific binding was determined.
Compound,IC50 [1],IC50 [2]
"Oc1ncnc2c(-c3ccc(Sc4ccccc4)cc3)cnn12 [Example 77, 4-Hydroxy-8-(4-phenylthiophenyl)pyrazolo[1,5-a]-1,3,5-triazine]",9.6e-07 M,4.6e-07 M
"N#Cc1ccc(NS(=O)(=O)c2ccc(-c3cnn4c(O)ncnc34)cc2)cc1 [Example 94, 8-[4-(4-cyanophenylaminosulfonyl)phenyl]-4-hydroxypyrazolo[1,5-a]-1,3,5-triazine]",6e-07 M,
"CCc1cccc(NS(=O)(=O)c2ccc(-c3cnn4c(O)ncnc34)cc2)c1 [Example 90, 8-[4-(3-ethylphenylaminosulfonyl)phenyl]-4-hydroxypyrazolo[1,5-a]-1,3,5-triazine]",< 5e-06 M,
"CCc1ccc(NS(=O)(=O)c2ccc(-c3cnn4c(O)ncnc34)cc2)cc1 [Example 89, 8-[4-(4-Ethylphenylaminosulfonyl)phenyl]-4-hydroxypyrazlo[1,5-a]-1,3,5-triazine]",< 5e-06 M,
"Cc1cccc(Sc2ccc(-c3cnn4c(O)ncnc34)cc2C)c1 [Example 83, 4-Hydroxy-8-[3-methyl-4-(3-methylphenylthio)phenyl]pyrazolo[1,5-a]-1,3,5-triazine]",1.3e-07 M,
"Cc1cc(-c2cnn3c(O)ncnc23)ccc1Sc1ccc(Br)cc1 [Example 100, 8-[4-(4-bromophenylthio)-3-methylphenyl]-4-hydroxypyrazolo[1,5-a]-1,3,5-triazine]",4e-07 M,
"CC(C)c1ccc(NS(=O)(=O)c2ccc(-c3cnn4c(O)ncnc34)cc2)cc1 [Example 92, 4-Hydroxy-8-[4-(4-isopropylphenylaminosulfonyl)phenyl]pyrazolo[1,5-a]-1,3,5-triazine]",< 5e-06 M,
"Cc1ccc(NS(=O)(=O)c2ccc(-c3cnn4c(O)ncnc34)cc2)cc1 [Example 88, 4-Hydroxy-8-[4-(4-methylphenylaminosulfonyl)phenyl]pyrazolo[1,5-a]-1,3,5-triazine]",< 5e-06 M,
"O=S(=O)(NC1CCCCC1)c1ccc(-c2cnn3c(O)ncnc23)cc1 [Example 98, 8-(4-cyclohexylaminosulfonylphenyl)-4-hydroxypyrazolo[1,5-a]-1,3,5-triazine]",3.6e-07 M,
"COc1cc(-c2cnn3c(O)ncnc23)ccc1Sc1ccccc1 [Example 101, 4-Hydroxy-8-(3-methoxy-4-phenylthiophenyl)pyrazolo [1,5-a]-1,3,5-triazine]",3e-07 M,1.5e-07 M
"Cc1cc(-c2cnn3c(O)ncnc23)ccc1SCc1ccccc1 [Example 79, 8-(4-Benzylthio-3-methylphenyl)-4-hydroxypyrazolo[1,5-a]-1,3,5-triazine]",1.1e-07 M,
"O=S(=O)(Nc1cccnc1)c1ccc(-c2cnn3c(O)ncnc23)cc1 [Example 97, 4-Hydroxy-8-[4-(3-pyridylaminosulfonyl)phenyl]pyrazolo[1,5-a]-1,3,5-triazine]",5e-06 M,
"O=S(=O)(Nc1ccccc1)c1ccc(-c2cnn3c(O)ncnc23)cc1 [Example 87, 4-Hydroxy-8-(4-phenylaminosulfonylphenyl)pyrazolo[1,5-a]-1,3,5-triazine]",1.3e-07 M,4e-08 M
"Cc1cc(O)n2ncc(-c3ccc(Sc4ccccc4)cc3)c2n1 [Example 5, 7-Hydroxy-5,methyl-3-(4-phenylthiophenyl)pyrazolo[1,5-a]pyrimidine]",5e-07 M,5e-07 M
"Oc1ncnc2c(-c3ccc(Sc4ccccc4)c(Cl)c3)cnn12 [Example 102, 8-(3-chloro-4-phenylthiophenyl)-4-hydroxypyrazolo[1,5-a]-1,3,5-triazine]",2.2e-06 M,
"Cc1cc(-c2cnn3c(O)ncnc23)ccc1Sc1ccccc1 [Example 81, 4-Hydroxy-8-(3-methyl-4-phenylthiophenyl)pyrazolo[1,5-a]-1,3,5-triazine]",1.5e-07 M,
"O=S(=O)(Nc1ccc(Cl)cc1)c1ccc(-c2cnn3c(O)ncnc23)cc1 [Example 95, 8-[4-(4-chlorophenylaminosulfonyl)phenyl]-4-hydroxypyrazolo[1,5-a]-l,3,5-triazine]",1.2e-06 M,
"Oc1ccnc2c(-c3ccc(Sc4ccccc4)cc3)cnn12 [Example 3, 7-Hydroxy-3-(4-phenylthiophenyl)pyrazolo[1,5-a]pyrimidine]",8.5e-07 M,9e-08 M
"COc1ccc(Sc2ccc(-c3cnn4c(O)ncnc34)cc2C)cc1 [Example 86, 4-Hydroxy-8-[4-(4-methoxyphenylthio)-3-methyl]phenylpyrazolo[1,5-a]-1,3,5-triazine]",1.2e-07 M,
"Cc1ccccc1Sc1ccc(-c2cnn3c(O)ncnc23)cc1C [Example 82, 4-Hydroxy-8-[3-methyl-4-(2-methylphenylthio)phenyl]pyrazolo[1,5-a]-1,3,5-triazine]",1.1e-06 M,
"Cc1cc(-c2cnn3c(O)ncnc23)ccc1S(=O)(=O)Nc1ccccc1 [Example 103, 4-Hydroxy-8-(3-methyl-4-phenylaminosulfonylphenyl)pyrazolo[1,5-a]-1,3,5-triazine]",2.5e-07 M,
